Laboratory results: patent US20140243334A1, “SUBSTITUTED HYDOXAMIC ACIDS AND USES THEREOF” (Millennium Pharmaceuticals, Inc., priority 2010, published 2014)

Target: T1, purified human HDAC6 (Homo sapiens, UniProt Q9UBN7)
T1 construct: purchased BPS Bioscience 5006
T1 sequence (Q9UBN7 1-1215): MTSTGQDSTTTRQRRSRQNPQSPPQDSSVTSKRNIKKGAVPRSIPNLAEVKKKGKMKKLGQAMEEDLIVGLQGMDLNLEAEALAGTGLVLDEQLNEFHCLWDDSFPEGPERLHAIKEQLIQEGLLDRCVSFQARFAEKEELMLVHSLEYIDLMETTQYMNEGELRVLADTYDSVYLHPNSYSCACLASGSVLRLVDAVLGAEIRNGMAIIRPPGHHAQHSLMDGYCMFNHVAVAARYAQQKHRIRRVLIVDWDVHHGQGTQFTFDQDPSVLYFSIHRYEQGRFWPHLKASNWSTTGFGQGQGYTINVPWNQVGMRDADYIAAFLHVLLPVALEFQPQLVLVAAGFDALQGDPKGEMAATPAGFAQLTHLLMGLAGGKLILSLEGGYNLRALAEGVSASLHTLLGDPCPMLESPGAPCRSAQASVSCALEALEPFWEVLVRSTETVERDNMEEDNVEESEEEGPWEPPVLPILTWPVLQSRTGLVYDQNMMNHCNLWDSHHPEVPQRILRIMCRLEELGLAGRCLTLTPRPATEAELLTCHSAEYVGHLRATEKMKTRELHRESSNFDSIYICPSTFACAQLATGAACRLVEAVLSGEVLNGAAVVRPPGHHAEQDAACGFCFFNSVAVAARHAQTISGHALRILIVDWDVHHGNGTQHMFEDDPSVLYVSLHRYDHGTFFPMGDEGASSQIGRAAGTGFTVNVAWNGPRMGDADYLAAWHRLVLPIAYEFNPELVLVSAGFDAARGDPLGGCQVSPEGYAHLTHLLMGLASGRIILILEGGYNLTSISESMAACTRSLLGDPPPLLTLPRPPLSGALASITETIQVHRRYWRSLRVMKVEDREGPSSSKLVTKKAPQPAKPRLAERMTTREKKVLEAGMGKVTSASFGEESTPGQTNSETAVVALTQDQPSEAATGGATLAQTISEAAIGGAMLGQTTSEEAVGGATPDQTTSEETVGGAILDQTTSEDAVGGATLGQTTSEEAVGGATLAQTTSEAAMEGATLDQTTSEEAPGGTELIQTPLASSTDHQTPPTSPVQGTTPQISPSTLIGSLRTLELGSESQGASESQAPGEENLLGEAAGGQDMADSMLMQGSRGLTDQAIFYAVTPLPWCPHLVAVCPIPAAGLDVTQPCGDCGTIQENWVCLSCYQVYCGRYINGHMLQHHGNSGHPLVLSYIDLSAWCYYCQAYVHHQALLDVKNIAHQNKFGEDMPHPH
Assay: HDAC6 Enzyme Assay
Assay type: biochemical
Settings: HDAC6 inhibition at a compound concentration of 0.412 μM; read-out: Percent Inhibition at 0.412 μM

SMILES	inhibition at 0.412 µM [%]
O=C(NO)C1CCc2cc(Oc3ccncc3)ccc2C1 (stereo not shown) [Compound I-27, N-hydroxy-6-(pyridin-4-yloxy)-1,2,3,4-tetrahydronaphthalene-2-carboxamide]	53
O=C(NO)C1CCc2ccc(-c3ccc([N+](=O)[O-])cc3)cc2C1 (stereo not shown) [Compound I-104, N-hydroxy-7-(4-nitrophenyl)-1,2,3,4-tetrahydronaphthalene-2-carboxamide]	78
O=C(NO)C1CCc2ccc(Oc3ccc(Cl)cc3)cc2C1 (stereo not shown) [Compound I-11, 7-(4-chlorophenoxy)-N-hydroxy-1,2,3,4-tetrahydronaphthalene-2-carboxamide]	62
O=C(NO)C1CCc2ccc(-c3cnc4[nH]ccc4c3)cc2C1 (stereo not shown) [Compound I-87, N-hydroxy-7-(1H-pyrrolo[2,3-b]pyridin-5-yl)-1,2,3,4-tetrahydronaphthalene-2-carboxamide]	85
O=C(NO)C1CCc2ccc(-c3ccc(N4CCCC4)nc3)cc2C1 (stereo not shown) [Compound I-97, N-hydroxy-7-(6-pyrrolidin-1-ylpyridin-3-yl)-1,2,3,4-tetrahydronaphthalene-2-carboxamide]	81
O=C(Nc1cc(Oc2ccc3c(c2)C[C@@H](C(=O)NO)CC3)ccn1)C1CC1 [Compound I-2, (2S)-7-({2-[(cyclopropylcarbonyl)amino]pyridin-4-yl}oxy)-N-hydroxy-1,2,3,4-tetrahydronaphthalene-2-carboxamide]	90
COc1ccc2c(c1)CC(C)(C(=O)NO)CC2 (stereo not shown) [Compound I-76, N-hydroxy-7-methoxy-2-methyl-1,2,3,4-tetrahydronaphthalene-2-carboxamide]	0
CN(C)CCOc1cccc(Oc2ccc3c(c2)CC(C(=O)NO)CC3)c1 (stereo not shown) [Compound I-46, 7-{3-[2-(dimethylamino)ethoxy]phenoxy}-N-hydroxy-1,2,3,4-tetrahydronaphthalene-2-carboxamide]	78
O=C(NO)C1CCc2ccc(Nc3ccncc3)cc2C1 (stereo not shown) [Compound I-33, N-hydroxy-7-(pyridin-4-ylamino)-1,2,3,4-tetrahydronaphthalene-2-carboxamide]	57
COc1cccc(-c2ccc3c(c2)CC(C(=O)NO)CC3)c1 (stereo not shown) [Compound I-67, N-hydroxy-7-(3-methoxyphenyl)-1,2,3,4-tetrahydronaphthalene-2-carboxamide]	81
O=C(NO)C1CCc2cc(F)c(Oc3ccnc(NC(=O)C4CC4)c3)cc2C1 (stereo not shown) [Compound I-32, 7-({2-[(cyclopropylcarbonyl)amino]pyridin-4-yl}oxy)-6-fluoro-N-hydroxy-1,2,3,4-tetrahydronaphthalene-2-carboxamide]	91
O=C(NO)C1CCc2ccc(OCc3ccccc3)cc2C1 (stereo not shown) [Compound I-6, 7-(benzyloxy)-N-hydroxy-1,2,3,4-tetrahydronaphthalene-2-carboxamide]	53
CN(C)Cc1cc(C(=O)Nc2ccc3c(c2)CC(C(=O)NO)CC3)cc(C(F)(F)F)c1 (stereo not shown) [Compound I-37, 7-{[3-[(dimethylamino)methyl]-5-(trifluoromethyl)benzoyl]amino}-N-hydroxy-1,2,3,4-tetrahydronaphthalene-2-carboxamide]	55
O=C(NO)C1CCc2ccc(-c3cccc(Cl)c3)cc2C1 (stereo not shown) [Compound I-49, 7-(3-chlorophenyl)-N-hydroxy-1,2,3,4-tetrahydronaphthalene-2-carboxamide]	82
O=C(NO)C1CCc2ccc(-c3ccc(F)c(C(=O)N4CCCC4)c3)cc2C1 (stereo not shown) [Compound I-113, 7-[4-fluoro-3-(pyrrolidin-1-ylcarbonyl)phenyl]-N-hydroxy-1,2,3,4-tetrahydronaphthalene-2-carboxamide]	89
COc1cccc2c1CC(C(=O)NO)CC2 (stereo not shown) [Compound I-15, N-hydroxy-8-methoxy-1,2,3,4-tetrahydronaphthalene-2-carboxamide]	25

SMILES	inhibition at 0.412 µM [%]
O=C(NO)C1CCc2ccc(-c3csc4ccccc34)cc2C1 (stereo not shown) [Compound I-96, 7-(1-benzothien-3-yl)-N-hydroxy-1,2,3,4-tetrahydronaphthalene-2-carboxamide]	79
O=C(NC1CC1)c1cccc(Oc2ccc3c(c2)CC(C(=O)NO)CC3)c1 (stereo not shown) [Compound I-43, 7-{3-[(cyclopropylamino)carbonyl]phenoxy}-N-hydroxy-1,2,3,4-tetrahydronaphthalene-2-carboxamide]	19
CS(=O)(=O)Nc1cccc(Oc2ccc3c(c2)CC(C(=O)NO)CC3)c1 (stereo not shown) [Compound I-55, N-hydroxy-7-{3-[(methylsulfonyl)amino]phenoxy}-1,2,3,4-tetrahydronaphthalene-2-carboxamide]	93
O=C(NO)C1CCc2ccc(-c3ccc(S(=O)(=O)N4CCCCC4)cc3)cc2C1 (stereo not shown) [Compound I-123, N-hydroxy-7-[4-(piperidin-1-ylsulfonyl)phenyl]-1,2,3,4-tetrahydronaphthalene-2-carboxamide]	61
COc1ccc2c(c1)CCC(C(=O)NO)C2 (stereo not shown) [Compound I-10, N-hydroxy-6-methoxy-1,2,3,4-tetrahydronaphthalene-2-carboxamide]	32
O=C(NO)C1CCc2ccc(-c3ccc4[nH]ccc4c3)cc2C1 (stereo not shown) [Compound I-75, N-hydroxy-7-(1H-indol-5-yl)-1,2,3,4-tetrahydronaphthalene-2-carboxamide]	77
CCOc1cccc(-c2ccc3c(c2)CC(C(=O)NO)CC3)c1 (stereo not shown) [Compound I-107, 7-(3-ethoxyphenyl)-N-hydroxy-1,2,3,4-tetrahydronaphthalene-2-carboxamide]	86
O=C(NO)C1CCc2ccc(-c3cccnc3)cc2C1 (stereo not shown) [Compound I-60, N-hydroxy-7-pyridin-3-yl-1,2,3,4-tetrahydronaphthalene-2-carboxamide]	75
COc1ccc(-c2ccc3c(c2)CC(C(=O)NO)CC3)c(C)c1 (stereo not shown) [Compound I-95, N-hydroxy-7-(4-methoxy-2-methylphenyl)-1,2,3,4-tetrahydronaphthalene-2-carboxamide]	78
O=C(NO)C1CCc2ccc(-c3ccc4ccccc4c3)cc2C1 (stereo not shown) [Compound I-86, N-hydroxy-5,6,7,8-tetrahydro-2,2′-binaphthalene-7-carboxamide]	73
COc1ccc(-c2ccc3c(c2)CC(C(=O)NO)CC3)cc1OC (stereo not shown) [Compound I-109, 7-(3,4-dimethoxyphenyl)-N-hydroxy-1,2,3,4-tetrahydronaphthalene-2-carboxamide]	82
O=C(NO)C1CCc2ccc(CCc3ccccc3)cc2C1 (stereo not shown) [Compound I-36, N-hydroxy-7-(2-phenylethyl)-1,2,3,4-tetrahydronaphthalene-2-carboxamide]	37
O=C(NO)C1CCc2ccc(-c3cccc([N+](=O)[O-])c3)cc2C1 (stereo not shown) [Compound I-106, N-hydroxy-7-(3-nitrophenyl)-1,2,3,4-tetrahydronaphthalene-2-carboxamide]	83
O=C(NO)C1CCc2ccc(-c3ccc4nonc4c3)cc2C1 (stereo not shown) [Compound I-91, 7-(2,1,3-benzoxadiazol-5-yl)-N-hydroxy-1,2,3,4-tetrahydronaphthalene-2-carboxamide]	77
CNC(=O)c1cc(F)cc(-c2ccc3c(c2)CC(C(=O)NO)CC3)c1 (stereo not shown) [Compound I-100, 7-{3-fluoro-5-[(methylamino)carbonyl]phenyl}-N-hydroxy-1,2,3,4-tetrahydronaphthalene-2-carboxamide]	84
